What all share (test): growth of human tumour cells (NCI), 48 h
Experiment [1] deals with HOP-92 NSCLC.
In experiment [2] the test system is MOLT-4 leukemia.
In experiment [3] the test system is OVCAR-4 ovarian.
Experiment [4] concerns OVCAR-5 ovarian.
Experiment [5] has as its system SF-295 CNS.
For experiment [6], the system named is SK-MEL-5 melanoma.
Experiment [7] deals with SNB-75 CNS.
Experiment [8] relates to SW-620 colon.
The test system of experiment [9] is UO-31 renal.
The test system of experiment [10] is DLD-1 colon.
Experiment [11] has as its system DMS 114 small cell lung.

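How tested: cells in 96-well plates exposed to compound for 48 hours at five concentrations. GI50 = concentration required for 50% inhibition of growth. At the TGI there is no net growth.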 Bounds are passed on as bounds.

Turning to `CNC(=O)c1cc(Oc2cccc3nc(NC(=O)Nc4cc(C(F)(F)F)cc(C(F)(F)F)c4)ccc23)ccn1`, the GI50 in experiment [1] was 2.5 µM; in experiment [2] it was 35.9 µM; in experiment [3], 2.37 µM; in experiment [4], 13.3 µM; in [5], 3.69 µM; in [6], 6.2 µM. In addition, the GI50 in experiment [7] was 2.38 µM; in [8], 16.9 µM; in [9] it was 4.91 µM. For the same compound, the TGI was 6.27 µM in experiment [1]; greater than 100 µM in [2]; 7.51 µM in [3]; greater than 100 µM in [4]; 15.2 µM in experiment [5]; 24.2 µM in experiment [6]. For the same compound, the TGI in experiment [7] is 14.9 µM; in experiment [8] it was greater than 100 µM; in [9] it was 40.5 µM.

Regarding `CCO/S(=N/S(=O)(=O)c1ccccc1)c1ccccc1[N+](=O)[O-]` (stereo unspecified), the TGI in experiment [10], in experiment [11], in experiment [2], in [3], in experiment [4] and in [5] was greater than 100 µM throughout. For the same compound, the TGI in [6], in experiment [7], in experiment [8] and in [9] was greater than 100 µM throughout.

For the compound `N#Cc1cnc2cc(OC[C@@H](O)CO)c(NC(=O)C3CCCC3)cc2c1Nc1ccc(OCc2cccc(F)c2)c(Cl)c1`, the GI50 in [1] is 0.99 µM; in [2], 1.49 µM; in [3], 0.514 µM; in [4], 7.69 µM; in experiment [5], 3.78 µM; in experiment [6] it was 7.72 µM. Also, the GI50 in [7] is 2.19 µM; in experiment [8], 1.53 µM; in [9] it was 2.21 µM. The TGI in experiment [1] is 2.48 µM; in [2], 4.69 µM; in experiment [3], 1.28 µM; in [4] it was 17.2 µM; in experiment [5], 12.2 µM; in experiment [6] it was 17.5 µM. Further, the results for the TGI in experiment [7], in experiment [8] and in [9] were greater than 50 µM, 6.78 µM and greater than 50 µM, respectively.

For `[N-]=[N+]=NCCCn1c2c(c3ccc([N+](=O)[O-])cc3c1=O)C(=O)c1cc3c(cc1-2)OCO3`, the GI50 in experiment [1] was 2.56 µM; in [2] it was less than 0.0374 µM; in [3], 4.83 µM; in experiment [4], 0.215 µM; in experiment [5], less than 0.012 µM; in [6] it was less than 0.0317 µM. Also, the GI50 in experiment [8] is less than 0.0285 µM; in [9], less than 0.0335 µM. The TGI is greater than 33.5 µM in [1]; greater than 100 µM in experiment [3]; 2.1 µM in experiment [4]; less than 0.0428 µM in experiment [5]; 0.196 µM in [6]; greater than 100 µM in [7]. The figures for the TGI in experiment [8] and in experiment [9] were greater than 100 µM and 2.28 µM, respectively.

As for `CN(C)CCC(/C=C/c1ccccc1)=N\Nc1ccc(Cl)c(Cl)c1`, the TGI in experiment [10] amounted to 11 µM; in experiment [1], 4.4 µM; in [2] it was 6.63 µM; in [3] it was 10.8 µM; in experiment [4], 15.6 µM; in [5] it was 11.2 µM. Further, the TGI in experiment [6] was determined as 8.96 µM; in experiment [7], 5.9 µM; in experiment [8] it was 13.3 µM; in [9], 3.41 µM.

In the case of `COc1cccc(-c2nn(-c3ccccc3)cc2-c2ccnc(NCCCNC(=O)c3cccc(C(F)(F)F)c3)c2)c1`, the GI50 was 2.48 µM in experiment [1]; 2.63 µM in experiment [2]; 4.22 µM in [3]; 11.3 µM in [4]; 3.32 µM in [5]; 1.54 µM in [6]. Further, the GI50 is 17 µM in experiment [7], 4.35 µM in [8] and 2.69 µM in [9]. The TGI came out at 17.4 µM in [1]; 9.35 µM in experiment [2]; 32.2 µM in experiment [3]; 48.7 µM in experiment [4]; 13.9 µM in experiment [5]; 3.34 µM in experiment [6]. The TGI in [7] was determined as 57.8 µM; in experiment [8] it was 31.5 µM; in [9], 16.6 µM.

Take `O=c1[nH]c2cc([N+](=O)[O-])ccc2nc1/C(=N/Nc1ccccc1)C(O)c1ccco1` (stereo unspecified): the TGI in [10], in experiment [11], in [2], in experiment [3], in experiment [5] and in experiment [6] was greater than 100 µM each time. Besides, the TGI in [7], in [8] and in [9] was greater than 100 µM throughout.

Turning to `Cc1cc(N(CCC#N)CCC#N)ccc1N=Nc1cc(Cl)ccc1Cl`, the TGI in experiment [10] is 26.1 µM; in experiment [11] it was 22.9 µM; in experiment [2], 34.9 µM; in [3] it was 10.3 µM; in experiment [4], 27.4 µM; in [5], 34.9 µM. Besides, the TGI in experiment [6] was determined as 30.3 µM; in experiment [7] it was 28.3 µM; in experiment [8], 6.5 µM; in experiment [9] it was 30.9 µM.

As for `C=CC(COC(=O)C(C)(C)OC(C)=O)c1ccc(OC(=O)C(C)C)c(OC)c1` (stereo unspecified), the TGI in [1] worked out at 11.7 µM; in experiment [2], 20.6 µM; in experiment [3], 22.4 µM; in experiment [4], 32.5 µM; in experiment [5], 19.9 µM; in experiment [6], 27.8 µM. The TGI in experiment [7] came out at 22.2 µM; in [8], 52.8 µM; in experiment [9], 21.1 µM.

Regarding `CC(C)(C)c1cc(C(=O)Nc2ccc(C(=O)NCCN)cc2)cc(C(C)(C)C)c1`, the GI50 in experiment [1] is 2.82 µM; in experiment [2] it was 2.63 µM; in experiment [3], 2.71 µM; in experiment [4], 6.07 µM; in experiment [5], 1.73 µM; in experiment [6], 1.74 µM. In addition, the GI50 was 4.02 µM in experiment [7], 1.84 µM in [8] and 4.68 µM in experiment [9]. Besides, the TGI came to 12.6 µM in experiment [1]; 7.3 µM in experiment [2]; 11 µM in [3]; 22.8 µM in experiment [4]; 3.47 µM in [5]; 3.15 µM in [6]. Also, the TGI in experiment [7] was determined as 24.5 µM; in [8] it was 3.65 µM; in [9] it was 22 µM.

Values taken from PubChem BioAssay (NCI).
